This is an account of results in patent US20220135940A1, “METHOD FOR PRODUCING KIDNEY STRUCTURE HAVING DENDRITICALLY BRANCHED COLLECTING DUCT FROM PLURIPOTENT STEM CELLS” (NATIONAL UNIVERSITY CORPORATION KUMAMOTO UNIVERSITY, priority 2018, published 2022).

In assay [1] the test system is human iPS cell-derived CXCR4+/KIT+ WD progenitors. Briefly: Maturation culture of sorted human iPS cell-derived CXCR4+/KIT+ WD progenitors, mature WD marker genes. The class given is cell-based. The note with it: continuous administration in addition to mouse WD maturation cocktails, 10% Matrigel. How it is done:
On day 6.25, the induced spheroids were harvested and dissociated by incubating in 0.25% trypsin/EDTA for 6 minutes at 37° C. After blocking in normal mouse serum, cell surface marker (CXCR4/KIT) staining was carried out in a buffer containing 1% BSA, 1×HBSS and 0.035% NaHCO3. The FACS-sorted 5,000 of CXCR4+/KIT+ cells were seeded in a V-bottom 96-well low cell binding plate and precipitated by the centrifuge (210 G for 4 minutes). The supernatant was replaced with a medium containing 10 μM Y27632, 0.1 μM retinoic acid, 1 μM CHIR, 5 ng/mL human Fgf9, 100 ng/mL human Fgf1, 10 nM LDN193189 and 10% growth factor reduced Matrigel (“Procedure 5 medium”). On day 8.5, the spheroids were transferred to a medium containing 10 μM Y27632, 0.1 μM retinoic acid, 3 μM CHIR, 5 ng/mL human Fgf9, 1 ng/mL human GDNF, 100 ng/mL human Fgf1, 10 nM LDN193189 and 10% growth factor reduced Matrigel (“Procedure 6 medium”). […]
(§1) Harvested spheroids or cells were homogenized, and total RNA was isolated using RNeasy Plus Micro Kit (Qiagen), and then a reverse-transcribed with random primers and Superscript III (Invitrogen). Quantitative PCR was carried out using Real-Time PCR system (Takara Bio) and Thunderbird SYBR qPCR Mix (Toyobo). With normalized by β-actin gene, relative mRNA expression levels were analyzed. […]

Assay [2] concerns mouse ES cells. Briefly: AIM induction from mouse ES cells (procedure 3), AIM marker expression. It is filed as cell-based. Conditions: Fgf9 at high concentrations. As to the method:
(§2) ES cells were differentiated in a serum-free medium as follows. The ES cells were dissociated with Accutase™ (ESGRO) and cultured in a serum-free mouse ES cell differentiation medium. The harvested cells were aggregated in a 96-well U-bottom low cell binding plate at 1,000 cells per aggregate to form embryonic bodies (EBs). After 48 hours (day 2), the EBs were dissociated with Accutase and re-aggregated in a serum-free differentiation medium supplemented with 10 ng/mL human activin A (R & D) (Procedure 1). After 24 hours (day 3), the medium was replaced with a medium containing 0.3 ng/mL human Bmp4 (R & D) and 10 μM CHIR 99021 (Procedure 2). After 36 hours (day 4.5), the medium was replaced with procedure 3 medium containing 0.1 μM retinoic acid, 100 ng/mL human Fgf9 and 10 μM SB431542 (Wako). On day 5.5 (24 hours later), the medium was replaced with a medium containing 0.1 μM retinoic acid, 100 ng/mL human Fgf9 and 5 μM CHIR99021 (“Procedure 4 medium”). The differentiation factors of the Hoxb7-GFP ES cell line are shown in the table below together with the differentiation factors of the Osr1-GFP ES cell line.
(§3) Harvested spheroids or cells were homogenized, and total RNA was isolated using RNeasy Plus Micro Kit (Qiagen), and then a reverse-transcribed with random primers and Superscript III (Invitrogen). Quantitative PCR was carried out using Real-Time PCR system (Takara Bio) and Thunderbird SYBR qPCR Mix (Toyobo). With normalized by β-actin gene, relative mRNA expression levels were analyzed.
Next, signaling for the AIM differentiation procedure was hypothesized, which is partially different from that for PIM, based on the gene expression profile minimally conserved, between anterior intermediate mesoderm (AIM) (Osr1+, Pax2+, Pax8+, Emx2+, Lhx1+, Gata3+) and posterior intermediate mesoderm (PIM) (Osr1+, Wtl+, Hoxll+) (Procedure 3 in FIG. 2).

The test system of assay [3] is sorted Hoxb7-GFP positive E8.75 WD progenitors. Briefly: Maturation culture of sorted E8.75 WD progenitors, marker genes by qRT-PCR. It is filed as cell-based, mouse. Conditions: Wnt agonist 3 μM and Fgf9 100 ng/mL. As to the method:
For embryonic tissue cultures at E8.75, the region caudal to the heart primordia of 12-15 somite-stage embryos were harvested and Hoxb7-GFP+/Flk1− cells were sorted by FACS. The sorted cells were aggregated in a V-bottom 96-well low cell binding plate at about 1,200 cells per aggregate. It was cultured for the first 24 hours using a medium containing 10 μM Y27632, 0.1 μM retinoic acid, 1 μM CHIR99021, 5 ng/mL human Fgf9 and 10% growth factor reduced Matrigel (“Procedure 5 medium”), then, the spheroids were transferred to “Procedure 6 medium” and “Procedure 7 medium,” and cultured for 24 hours each for differentiation.
as §3
As the second procedure, the factors that mature the E8.75WD into the E9.5WD were found as follows. We investigated the factors that trigger maturation of the WD progenitors in the early stage, from embryonic E8.75 to E9.5 stage. At embryonic E8.75 to E9.5 stage, the Hoxb7-GFP positive WD progenitors are first clearly detectable in the anterior body trunk of the embryo (8-10 somite level). […]
On the technique in general: In qPCR the cycle at which signal appears reflects the starting amount.

In assay [4] the test system is mouse ES cells. Briefly: Induction of CXCR4+/KIT+ WD progenitors from mouse ES cells, FACS at day 6.25. The class given is cell-based. As to the method:
as §2
On day 6.25, the induced spheroids were harvested and dissociated by incubating in 0.25% trypsin/EDTA at 37° C. for 6 minutes. After blocking in normal mouse serum, cell surface marker (CXCR4/KIT) staining was carried out in a buffer containing 1% BSA, 1×HBSS and 0.035% NaHCO3. The FACS-sorted 3,000 Hoxb7-GFP+/CXCR4+/KIT+ cells were aggregated in a V-bottom 96-well low cell binding plate to form spheroids. Subsequently, these were cultured using the above E8.75 embryonic tissue culture conditions.
(§4) Cell aggregates induced from embryonic tissue or mouse ES cells/human iPS cells were dissociated and blocked with normal mouse serum and then cell surface marker staining was carried out in a buffer containing 1% BSA, 1×HBSS and 0.035% NaHCO3. Data analysis was performed with FlowJo software (Treestar).

Assay [5] has as its system human iPS cells. The experiment in a line: AIM induction from human iPS cells (procedure 3), AIM marker genes by quantitative analysis at day 4.5. It is filed as cell-based. The note with it: administered at procedure 3, day 4.5. As to the method: (§5) Cells were reaggregated at 10,000 cells per aggregate in a V-bottom 96-well low cell binding plate using a medium containing 10 μM Y27632 and 10 ng/mL human activin A and 1 ng/mL human Bmp4 (“Procedure 1 medium”), to form embryonic bodies (EBs). After 24 hours (day 1), the aggregates were transferred to a U-bottom 96-well low cell binding plate containing a medium containing 10 μM CHIR and 1 ng/mL human Bmp4 (“Procedure 2 medium”). After 36 hours (day 2.5), the medium was replaced with a medium containing 0.1 μM retinoic acid, 100 ng/mL human Fgf9, 100 nM LDN193189 and 100 μM SB431542 (“Procedure 3 medium”). On day 4.5, the medium was replaced with a medium containing 0.1 μM retinoic acid, 5 μM CHIR, 100 ng/mL human Fgf9 and 30 nM LDN193189 (“Procedure 4 medium”).
as §3
The induction of WD from human iPS cells was performed as follows. […] This was confirmed by quantitative analysis at day 4.5 and day 6.25, respectively (FIG. 22).

The test system of assay [6] is human iPS cells. The experiment in a line: Induction of CXCR4+/KIT+ WD progenitors from human iPS cells, FACS at day 6.25. The class given is cell-based. How it is done: as §5
On day 6.25, the induced spheroids were harvested and dissociated by incubating in 0.25% trypsin/EDTA for 6 minutes at 37° C. After blocking in normal mouse serum, cell surface marker (CXCR4/KIT) staining was carried out in a buffer containing 1% BSA, 1×HBSS and 0.035% NaHCO3. The FACS-sorted 5,000 of CXCR4+/KIT+ cells were seeded in a V-bottom 96-well low cell binding plate and precipitated by the centrifuge (210 G for 4 minutes). The supernatant was replaced with a medium containing 10 μM Y27632, 0.1 μM retinoic acid, 1 μM CHIR, 5 ng/mL human Fgf9, 100 ng/mL human Fgf1, 10 nM LDN193189 and 10% growth factor reduced Matrigel (“Procedure 5 medium”). On day 8.5, the spheroids were transferred to a medium containing 10 μM Y27632, 0.1 μM retinoic acid, 3 μM CHIR, 5 ng/mL human Fgf9, 1 ng/mL human GDNF, 100 ng/mL human Fgf1, 10 nM LDN193189 and 10% growth factor reduced Matrigel (“Procedure 6 medium”). On day 10.5, the spheroids were transferred to a medium containing 10 μM Y27632, 0.1 μM retinoic acid, 3 μM CHIR, 2 ng/mL human GDNF, 100 ng/mL human Fgf1, 10 nM LDN193189 and 10% growth factor reduce Matrigel (“Procedure 7 medium”).
as §4
Next, the optimal time window for inducing anterior or posterior intermediate mesoderm from the nascent mesoderm was examined. Since the nascent mesoderm population is maintained by the high concentrations of Wnt agonists, the incubation period with Wnt agonists was varied and the subsequent differentiation was applied with conditions specific to the UB or metanephric nephron progenitor cell lineage. The induction efficiency of CXCR4+/KIT+ WD progenitor or ITGA8+/PDGFRA− nephron progenitor cell fraction was examined at day 6.25 or day 12, respectively. […]

For assay [7], the system named is WD sorted from dissociated E9.5 mouse embryos. The experiment in a line: Maturation culture of sorted E9.5 embryonic WD with growth factor combinations, marker genes by qRT-PCR. The class given is cell-based. Conditions: E9.5 WD aggregates, Gdnf added to RA, Wnt agonist and Fgf9. As to the method:
The posterior regions were harvested from the forelimbs of 22-26 somatic-stage embryos for embryonic tissue culture at […]. The harvested tissues were dissociated into single cells by incubating in DMEM/10% FBS containing 1 mg/mL Type XI collagenase for 6 minutes at 37° C., followed by treatment with DNase I and 0.25% trypsin at 37° C. for 6 minutes. After blocking in normal mouse serum, cell surface marker (Flk1) staining was carried out. Hoxb7-GFP+/Flk1− cells sorted by FACS were resuspended in a mouse ES cell differentiation media, and seeded in a V-bottom 96-well low cell binding plate (Sumitomo Bakelite, Co., Ltd., Cat #MS-9096V) so that there were about 1,600 cells per well. After the centrifuge (210 G, 4 min), the supernatant media was replaced with a medium containing 10 μM Y27632 (Wako), 0.1 μM retinoic acid, 3 μM CHIR99021, 5 ng/mL human Fgf9 (R & D), 1 ng/mL human GDNF (R & D) and 10% growth factor reduced Matrigel (BD) (“Procedure 6 medium”). […]
as §1

Regarding “Fgf1: fibroblast cell growth factor, human Fgf1”, in assay [1], the “expression of the mature WD marker genes” value was “further enhanced the expression of the mature WD marker genes”.

As for `CC1=C(/C=C/C(C)=C/C=C/C(C)=C/C(=O)O)C(C)(C)CCC1` [retinoic acid, all trans-retinoic acid, reference compound], the “induction of AIM markers” value in assay [2] is “common inducer for both AIM and PIM induction”.

Regarding `Cc1c[nH]c(-c2cnc(NCCNc3ccc(C#N)cn3)nc2-c2ccc(Cl)cc2Cl)n1` [CHIR99021, reference compound], in assay [3], the “expression of maturation marker genes (Hnf1b, Wnt9b, Calb1, E-cadherin)” value is “worked inhibitory”. For the same molecule, the “induction of the CXCR4+/KIT+ population” value in assay [4] (procedure 4, removal of the factor from RA, Wnt agonist and Fgf9) is “dramatically reduced the induction of the CXCR4+/KIT+ population”. Take `NC(=O)c1ccc(-c2nc(-c3ccc4c(c3)OCO4)c(-c3ccccn3)[nH]2)cc1` [SB431542, reference compound]: the “induction of AIM markers” value in assay [2] is on record as “enhanced the AIM marker induction”.

As to `c1ccc2c(-c3cnn4cc(-c5ccc(N6CCNCC6)cc5)cnc34)ccnc2c1` [LDN, LDN193189, reference compound], in assay [5], the “AIM marker genes expression” value is “greatly enhanced”. The “induction of CXCR4+/KIT+ WD progenitors” value in assay [6] (administered at procedure 3, day 6.25) is listed as “greatly enhanced”. In addition, the “expression of the mature WD marker genes” value in assay [1] is “further enhanced the expression of the mature WD marker genes”.

B1: Gdnf: glial cell line-derived neurotrophic factor, recombinant human GDNF protein (protein, UniProt P39905 78-211, looked up)
Glial cell line-derived …: SPDKQMAVLPRRERNRQAAAANPENSRGKGRRGQRGKNRGCVLTAIHLNVTDLGLGYETKEELIFRYCSGSCDAAETTYDKILKNLSRNRRLVSDKVGQACCRPIAFDDDLSFLDDNLVYHILRKHSAKRCGCI
For B1, the “Wnt11 expression and bud-like structure formation” value in assay [7] is “successfully induced the Wnt11 expression and bud-like structure formation”.

B2: Bmp4: BMP signal pathway active substance, human Bmp4 (R & D) (protein, UniProt P12644 293-408, looked up)
Bone morphogenetic protein 4: SPKHHSQRARKKNKNCRRHSLYVDFSDVGWNDWIVAPPGYQAFYCHGDCPFPLADHLNSTNHAIVQTLVNSVNSSIPKACCVPTELSAISMLYLDEYDKVVLKNYQEMVVEGCGCR
With B2, the “induction of AIM markers” value in assay [2] was “inhibitory to the induction of AIM markers”. The “UB induction versus MM induction, concentration dependence” value in assay [4] (Bmp4 in procedure 2, activin A in procedure 1) is recorded as “maximized at higher Bmp4 concentrations compared to MM”. Besides, the “concentration at which WD progenitor induction peaked” value in assay [6] (epiblast patterning stage (day 0 to day 1), combination of activin A and Bmp4) is reported as 1 ng/mL. In assay [6] (mesoderm induction/patterning with CHIR, days 1 to 2.5), the “concentration at which UB progenitor cells were most efficiently induced” value is 1 ng/mL.
